Where a name gives a salt, the structure may show the parent alone.
Columns and labels:
delta opioid receptor = target: T1, delta opioid receptor (Mus musculus, UniProt P32300); assay: Radioligand binding, delta opioid receptor ([3H]-DADLE, mouse brain membranes); conditions: [3H]-DADLE binding, 1.3 nM, with 40 nM unlabelled DAMGO
T1 construct: Mouse brain membranes were prepared as described by; from tissue; host or cells: mouse brain membranes
Procedure: (§1) Mouse brain membranes were prepared as described by Kosteriitz (Br. J. Pharmacol., 1981, 73, 939.). […] The binding of the mu ligand [^3 H]-DAMGO (Eur. J. Pharmacol., 1989, 166, 213) and of the kappa ligand [^3 H]-U69593 (Excerpta Medica, 1990, 211) were carried out at 0.5 nM. The non-specific binding was determined in presence of naloxone (10 μM) for all tritiated ligands. […] The IC50 obtained were used to calculate the inhibitory constants (Ki) accordingly to the Cheng and Prusoff relation (Biochem. Pharmacol., 1973, 22, 3099).

mu opioid receptor = target: T2, mu opioid receptor (Mus musculus, UniProt P42866); assay: Radioligand binding, mu opioid receptor ([3H]-DAMGO, mouse brain membranes); conditions: selectivity ratio, mu vs delta
T2 construct: Mouse brain membranes were prepared as described by; from tissue; host or cells: mouse brain membranes
T2 sequence (P42866 whole entry): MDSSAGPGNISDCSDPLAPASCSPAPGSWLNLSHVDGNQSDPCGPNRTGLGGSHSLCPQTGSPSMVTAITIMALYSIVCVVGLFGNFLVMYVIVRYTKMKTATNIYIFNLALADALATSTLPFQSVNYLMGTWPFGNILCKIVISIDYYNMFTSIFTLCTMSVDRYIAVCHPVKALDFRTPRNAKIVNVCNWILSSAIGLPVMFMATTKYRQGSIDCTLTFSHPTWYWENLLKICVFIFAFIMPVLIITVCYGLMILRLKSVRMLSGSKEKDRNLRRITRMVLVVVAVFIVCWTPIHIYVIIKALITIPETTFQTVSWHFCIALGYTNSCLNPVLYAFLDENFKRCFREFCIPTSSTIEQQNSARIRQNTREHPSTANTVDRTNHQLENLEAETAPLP
Procedure: as §1

kappa opioid receptor = target: T3, kappa opioid receptor (Mus musculus, UniProt P33534); assay: Radioligand binding, kappa opioid receptor ([3H]-U69593, mouse brain membranes); conditions: selectivity ratio, kappa vs delta
T3 construct: Mouse brain membranes were prepared as described by; from tissue; host or cells: mouse brain membranes
T3 sequence (P33534 whole entry): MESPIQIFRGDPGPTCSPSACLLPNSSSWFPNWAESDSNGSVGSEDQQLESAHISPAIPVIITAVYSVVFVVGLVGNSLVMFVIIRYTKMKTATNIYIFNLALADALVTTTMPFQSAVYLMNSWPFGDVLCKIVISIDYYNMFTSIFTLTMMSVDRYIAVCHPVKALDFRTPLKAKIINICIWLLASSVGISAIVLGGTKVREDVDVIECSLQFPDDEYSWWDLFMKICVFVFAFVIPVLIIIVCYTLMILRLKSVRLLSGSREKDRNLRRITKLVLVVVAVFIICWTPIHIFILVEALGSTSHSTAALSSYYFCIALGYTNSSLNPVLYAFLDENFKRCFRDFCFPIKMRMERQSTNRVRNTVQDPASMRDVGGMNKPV
Procedure: as §1

[1] = target: delta opioid receptor (mouse vas deferens); assay: Mouse vas deferens (MVD) bioassay, delta agonist/antagonist activity
Procedure: The delta agonist/antagonist activity of the compounds of the present invention is determined in the mouse vas deferens (MVD) bioassay as described below.
Vasa deferentia were obtained from CD-1 mice and were suspended in a Mg^2+ -free Krebs buffer at 37° C. The tissues were electrically stimulated with pulse trains having the following parameters: train duration 50 ms, stimulus duration 2 ms, frequency of stimuli 50 Hz, maximal voltage 60-70 V, train frequency 0.1 Hz. Concentration response curves for each compounds were constructed cumulatively. Linear regression analysis and IC50 concentrations were evaluated according to Tallarida and Murray (Manual of Pharmacological Calculations, Springer Verlag N.Y., 1981).

T1 sequence (P32300 whole entry): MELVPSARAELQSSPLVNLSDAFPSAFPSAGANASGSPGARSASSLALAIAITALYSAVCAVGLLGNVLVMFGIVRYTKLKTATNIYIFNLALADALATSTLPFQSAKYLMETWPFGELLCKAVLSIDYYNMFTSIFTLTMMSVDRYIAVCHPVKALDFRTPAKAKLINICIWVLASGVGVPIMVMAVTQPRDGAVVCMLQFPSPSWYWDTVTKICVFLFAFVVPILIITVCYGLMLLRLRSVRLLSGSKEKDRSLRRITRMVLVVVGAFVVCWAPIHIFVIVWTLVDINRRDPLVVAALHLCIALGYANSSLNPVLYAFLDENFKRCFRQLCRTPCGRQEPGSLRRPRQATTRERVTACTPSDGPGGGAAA

CCN(CC)C(=O)c1[nH]c2c(c1C)C[C@H]1[C@H]3Cc4ccc(OC)c5c4[C@@]1(CCN3C)[C@H]2O5 [Example 7, [8R-(4bS*,8α,8aβ,12bβ)]-11-Diethylaminocarbonyl-7,10-dimethyl-1-methoxy-5,6,7,8,12,12b-hexahyro-(9H)-4,8-methanobenzofuro[3,2-e]pyrrolo[2,3-g]isoquinoline hydrochloride]
Ki (delta opioid receptor): 1.59 nM | Ki mu/Ki delta (mu opioid receptor): 218 | Ki kappa/Ki delta (kappa opioid receptor): 2259 | IC50 ([1]; electrically stimulated mouse vas deferens, 37° C.): 25 nM | shift of the dose-response curve by NTI (selective antagonism) ([1]; in presence of 30 nM of NTI (naltrindole), MVD): 10 fold

From US5981540A, “Heterocycle-condensed morphinoid derivatives” (SmithKline Beecham Farmaceutici S.P.A., priority 1994, dated 1999)
